Values of other authors in patent publication US10993944B2, “Methods and compositions for the treatment of hair loss” (Aneira Pharma, Inc., priority 2019, dated 2021).
Where two headings read alike, the source gives them in different places.

What was measured:
hair growth [1] = conditions: McCarey 2004
[2] = biological target: human recombinant FP receptor (Homo sapiens, UniProt P43088)
[3] = not given; remark: listed apart in the source
[4] = test system: elevated intraocular pressure; conditions: human glaucoma patients non-responsive to latanoprost; Gandolfi 2003
[5] = test system: elevated intraocular pressure; conditions: glaucomatous monkey eyes; Gagliuso 2004
hair growth [6] = test system: hair growth
[7] = test system: dihydrotestosterone (DHT); conditions: oral; including prostate gland and scalp

Sequence of human recombinant FP receptor (P43088 whole entry): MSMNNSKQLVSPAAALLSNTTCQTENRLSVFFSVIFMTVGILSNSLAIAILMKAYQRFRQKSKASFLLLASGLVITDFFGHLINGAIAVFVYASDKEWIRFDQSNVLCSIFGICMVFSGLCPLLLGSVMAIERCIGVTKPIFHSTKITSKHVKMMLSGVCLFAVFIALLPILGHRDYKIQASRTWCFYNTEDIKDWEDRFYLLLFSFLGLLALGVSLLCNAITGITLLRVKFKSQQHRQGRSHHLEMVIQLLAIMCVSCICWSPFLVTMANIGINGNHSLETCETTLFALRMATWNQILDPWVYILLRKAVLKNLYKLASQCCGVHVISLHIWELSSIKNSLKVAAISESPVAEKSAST

Structure (SMILES): CCCCCCCC(=O)CC[C@@H]1[C@@H](C/C=C\CCCC(=O)OC(C)C)[C@@H](O)C[C@H]1O [Uenoprostone isopropyl ester, Unoprostone isopropyl ester]
- hair growth (hair growth [1]): cause no hair growth and in fact may inhibit hair growth

Structure (SMILES): O=C(O)CCC/C=C\C[C@@H]1[C@@H](CC[C@@H](O)CCc2ccccc2)[C@H](O)C[C@@H]1O [Latanoprost free acid, Latanoprost acid]
- potency compared to PGF2α ([2]; human FP receptors): twice the potency of PGF2α
- potency as an FP receptor ligand compared to latanoprost ([2]; human recombinant FP receptor): two-hundred times more potent than latanoprost

Structure (SMILES): CC(C)OC(=O)CCC/C=C\C[C@@H]1[C@@H](CC[C@@H](O)CCc2ccccc2)[C@H](O)C[C@@H]1O [Latanoprost, isopropyl ester of 17-phenyl-13,14-dihydro prostaglandin F2a]
- stability in acidic or basic aqueous solutions (acidic or basic aqueous solutions): no more than 48 hours
- stability in neutral aqueous solutions (neutral aqueous solutions, room temperature): up to one month
- fat solubility compared to bimatoprost [3]: more fat soluble than bimatoprost
- solubility in water (words) [3]: poorly dissolved in water
- solubility in propylene glycol, methanol, ethanol and 2-propanol ([3]; highest concentration (5%)): Sufficient amount of solubility can be obtained even at the highest concentration (5%)
- solubility in water (words) ([3]; listed as latanoprost): poor solubility in water

Structure (SMILES): CCNC(=O)CCC/C=C\C[C@@H]1[C@@H](/C=C/[C@@H](O)CCc2ccccc2)[C@H](O)C[C@@H]1O [Bimatoprost]
- response in reducing elevated intraocular pressure [4]: found responsive to bimatoprost
- effect on elevated intraocular pressure in combination with latanoprost [5]: additive to that of latanoprost

Structure (SMILES): CCCCCCCC(=O)CC[C@@H]1[C@@H](C/C=C\CCCC(=O)O)[C@@H](O)C[C@H]1O [uenoprostone free acid]
- hair growth (hair growth [1]): cause no hair growth and in fact may inhibit hair growth

Structure (SMILES): Nc1cc(N2CCCCC2)nc(N)[n+]1OS(=O)(=O)[O-] [minoxidil sulphate]
- potency as hair growth agent compared to minoxidil (hair growth [6]): much more potent hair growth agent

Structure (SMILES): CC(C)(C)NC(=O)[C@H]1CC[C@H]2[C@@H]3CC[C@H]4NC(=O)C=C[C@]4(C)[C@H]3CC[C@]12C [finasteride, (1S,3aS,3bS,5aR,9aR,9bS,11aS)—N-tert-butyl-9a,11a-dimethyl-7-oxo-1,2,3,3a,3b,4,5,5a,6,9b,10,11-dodecahydroindeno[5,4-f]quinoline-1-carboxamide]
- decrease of production of dihydrotestosterone (DHT) [7]: about 70%
